Measurements as given in patent US10053452B2 (AMGEN INC., priority 2013, dated 2018).

Tests used:
[1] = Solubility studies in aqueous media, excipients or solvents (18-24 hrs, HPLC; solid form by XRPD); type: physicochemical; settings: for solubility at 24 h: thermodynamic from solid
Method: (§1) An excess of solid material was stirred at 25° C. or 55° C. for 18-24 hrs in aqueous media, excipients or solvents as noted. At the appropriate time point, an aliquot of the sample was centrifuged. The supernatant was filtered through a PTFE syringe filter and analyzed by HPLC versus a standard curve. The solid was then analyzed by XRPD for identification of the form.

Dog pK study = type: in vivo
From the text: To this end, a various crystalline forms of different pharmaceutically acceptable salts of AMG 900 were investigated and made.

[2] = Solid stability studies (storage at set temperature/humidity; HPLC, XRPD, TGA, DSC); type: physicochemical; settings: for Assay (% w/w): acceptance 97.0-103.0; for physical and chemical stability of unmilled drug substance: up to 3 months, 30° C./65% RH and 40° C./75% RH
Method: Stability data was obtained for up to 3 months storage at the long term storage condition of 30° C./65% RH and at the accelerated condition of 40° C./75% RH for unmilled drug substance.
Another 10 mg was weighed into a 4 mL glass vial and placed under the same conditions. At each time point one flask was removed from the chamber or over, diluted with methanol to the 100 mL mark and analyzed by HPLC for purity and label claim % compared to the standard. Also at each time point one vial was removed from the chamber and the contents were analyzed by XRPD, TGA and/or DSC.

[3] = Solid photostability (1×ICH dose for UV and visible light); type: physicochemical; settings: 1×ICH dose for UV and visible light
Method: For photostability studies, enough sample was placed in a open 100 mL glass crystallization dish and exposed to 1×ICH dose for UV and visible light. Samples were weighed out for HPLC, XRPD, TGA and DSC analysis as abve after the exposure to light.

[4] = Dynamic vapor sorption (DVS) moisture uptake; type: physicochemical
Method: Moisture uptake of a given AMG 900 salt crystalline form was assessed by dynamic vapor sorption (DVS). Moisture sorption/desorption data was collected on a Surface Measurement System (SMS) DVS-Advantage vapor sorption analyzer (SMS, Alperton, Middlesex, UK). The sorption and desorption data was collected over a range of 0 to 95% relative humidity (RH) at 25° C. with 5-10% RH intervals under a nitrogen purge. Equilibrium criteria used for analysis were less than 0.002% weight change in 5 minutes, with a maximum equilibrium time of 120 minutes if the weight criterion was not met.

[5] = Relationship / interconversion between bismesylate crystalline forms; type: physicochemical
From the text: AMG 900 bismesylate salt crystalline From A was identified as a dihydrate; AMG 900 bismesylate salt crystalline From B was identified as a dihydrate; AMG 900 bismesylate salt crystalline From C was identified as a monohydrate; and AMG 900 bismesylate salt crystalline From D was identified as a monohydrate. […].

[6] = Solid stability studies (storage at set temperature/humidity; HPLC, XRPD, TGA, DSC); type: physicochemical; settings: for Total Impurities (%): acceptance < or = 2.0; for Assay (% w/w): acceptance 97.0-103.0; for Description: acceptance: White to brown powder
solid tumor = test: Human Ph I clinical trial: active dose and MTD/DLT; settings: oral
[7] = tested on: solid ovarian cancerous tumor; test: Human Ph I clinical trial, tumor response: ovarian tumor
Method: Specifically, FIG. 32A illustrates diametric measurements along the short axis of the tumor dosed with 30 mg once daily over a period of two (2) cycles, ie., 4 week (28 days).

[8] = tested on: stage IV solid endometrial cancerous tumor; test: Human Ph I clinical trial, tumor response: endometrial tumor; settings: CT
From the text: FIGS. 31A and 31B are measurements of the same endometrial solid tumor depicted in FIGS. 30A and 30B, but with its size shown as measured alone the short axis by CT and calculated using RECIST 1.1.

p-Histone H3 [9] = test: p-Histone H3 in HeLa cells; settings: Homo sapiens, read-out: IC50 p-Histone H3
p-Histone H3 [10] = test: p-Histone H3 in Jurkat cells; settings: Homo sapiens, read-out: IC50 for p-Histone H3
[11] = Solubility of salt/crystal forms in 0.01N HCl over 24 hrs; type: physicochemical; settings: slurry
Method: as §1

[12] = 30° C./65% RH, Initial Period Time 0
[13] = up to 12 weeks, 25° C./60% RH, 40° C./60% RH, 40° C./75% RH and 60° C./Amb
[14] = platinum-sensitive ovarian cancer patient, 16 mg, then 8 mg (cycles 4-15), 12 mg (cycle 16) once daily, end of cycle 16

## Cc1csc(-c2nnc(Nc3ccc(Oc4ncccc4-c4ccnc(N)n4)cc3)c3ccccc23)c1 [free base crystalline form A of AMG 900, N-(4-((3-(2-amino-4-pyrimidinyl)-2-pyridinyl)oxy)phenyl)-4-(4-methyl-2-thienyl)-1-phthalazinamine]
[1]; water
  solubility in water: poorly soluble
Dog pK study; dogs
  bioavailability in dogs: low

## Cc1csc(-c2nnc(Nc3ccc(Oc4ncccc4-c4ccnc(N)n4)cc3)c3ccccc23)c1 [AMG 900 bismesylate dihydrate form B, N-(4-((3-(2-amino-4-pyrimidinyl)-2-pyridinyl)oxy)phenyl)-4-(4-methyl-2-thienyl)-1-phthalazinamine]
[2]; 30° C./65% RH, 3 months
  Assay (% w/w): 99.2 % w/w
[2]; 30° C./65% RH, 3 months, acceptance: White to brown powder
  Description: conforms
[2]; [12]
  Assay (% w/w): 98.1 % w/w
[2]; 30° C./65% RH, Initial Period Time 0, acceptance < or = 2.0
  Total Impurities (%): 0.35%
[2]; 30° C./65% RH, Initial Period Time 0, acceptance < or = 500
  4-aminophenol content (ppm): <20 ppm
[2]; listed as AMG 900 bis-mesylate dihydrate drug substance
  physical and chemical stability of unmilled drug substance: remain within specifications
[2]; listed as AMG 900 bismesylate (dimethanesulfonate) salt crystalline Form B
  physical and chemical stability of unmilled drug substance: stable
[3]
  chemical and physical stability to light: chemically and physically stable
[1]; 24 hrs, all media except aqueous pH 7 and pH 12
  form stability after slurry in various aqueous media and solvents: remain unchanged (stable)
[1]; DMF, organic solvent or mixture
  solubility at 24 h: > 12000 µg/mL
[1]; THF, organic solvent or mixture
  solubility at 24 h: 12 µg/mL
[1]; acetone, organic solvent or mixture
  solubility at 24 h: 20 µg/mL
[1]; aqueous MSA, aqueous buffer, pH 0.5 MSA
  solubility at 24 h: 676 µg/mL
[1]; aqueous MSA, aqueous buffer, pH 1.0 MSA
  solubility at 24 h: > 7400 µg/mL
[1]; aqueous MSA, aqueous buffer, pH 1.5 MSA
  solubility at 24 h: 3400 µg/mL
[1]; aqueous MSA, aqueous buffer, pH 2.0 MSA
  solubility at 24 h: 1620 µg/mL
[1]; aqueous pH 7, 24 hrs
  form after slurry: converted to the free base form C hydrate
[1]; aqueous pH 12, 24 hrs
  form after slurry: converted to the free base form C hydrate
[1]; ethanol, organic solvent or mixture
  solubility at 24 h: > 12000 µg/mL
[1]; ethyl acetate, organic solvent or mixture
  solubility at 24 h: < 1 µg/mL
[1]; isopropyl alcohol, organic solvent or mixture
  solubility at 24 h: > 1 µg/mL
[1]; methanol, organic solvent or mixture
  solubility at 24 h: > 12000 µg/mL
[1]; methanol/water (9:1), organic solvent or mixture
  solubility at 24 h: > 12000 µg/mL
[1]; methyl ethyl ketone, organic solvent or mixture, Methyl ethyl keone
  solubility at 24 h: < 1 µg/mL
[1]; organic solvent or mixture, Acetonitrile (ACN)
  solubility at 24 h: 383 µg/mL
[1]; organic solvent or mixture, Dichloroethane (DCE)
  solubility at 24 h: 8 µg/mL
[1]; phosphate buffer, aqueous buffer, pH 7.0 Phosphate
  solubility at 24 h: < 1 µg/mL
[1]; phosphate buffer, aqueous buffer, pH 12.0 Phosphate
  solubility at 24 h: < 1 µg/mL
[4]
  hygroscopicity: non-hygroscopic
[4]; above 10% RH
  stability to humidity changes (DVS isotherm): stable to humidity changes
[5]
  thermodynamic stability of the crystalline form: thermodynamically stable form
Dog pK study; dog
  exposure in a dog pK study: acceptable
[6]; 30° C./65% RH, 3 months
  Water content (%): 5.1%
  Total Impurities (%): 0.21%
[6]; 30° C./65% RH, 3 months, acceptance < or = 500
  4-aminophenol content (ppm): <20 ppm
[6]; 30° C./65% RH, 6 months
  Water content (%): 5.2%
  Assay (% w/w): 99.1 % w/w
  Total Impurities (%): 0.16%
  Description: conforms
[6]; 30° C./65% RH, 6 months, acceptance < or = 500
  4-aminophenol content (ppm): <20 ppm
[6]; 30° C./65% RH, 9 months
  Water content (%): 5.2%
  Assay (% w/w): 101.2 % w/w
  Total Impurities (%): 0.25%
  Description: conforms
[6]; 30° C./65% RH, 9 months, acceptance < or = 500
  4-aminophenol content (ppm): <20 ppm
[6]; 30° C./65% RH, 12 months
  Water content (%): 5.2%
  Assay (% w/w): 100.1 % w/w
  Total Impurities (%): 0.26%
  Description: conforms
[6]; 30° C./65% RH, 12 months, acceptance < or = 500
  4-aminophenol content (ppm): <20 ppm
[6]; 30° C./65% RH, 12 months, acceptance < or = 500, intermediate is 4-(2-(4-aminophenoxy)pyridin-3-yl)pyrimidin-2-amine
  Intermediate* content (ppm): 171 ppm
[6]; [12]
  Water content (%): 5.0%
  Description: conforms
[6]; [13]
  chemical stability (HPLC): no degradation detected
  physical stability (XRPD, TGA and DSC): physically stable
Solid tumor
  dose at which MTD's and DLT's were observed: greater than 8 mg
Solid tumor; on-off schedule, ovarian and endometrial tumors
  once daily dose at which anti cancer activity was observed: ≥ 8 mg
[7]; [14]
  decrease in CA-125: 45%
  decrease in SLD (sum of long axis diameters) on CT: 16%
[7]; stage IV-B ovarian tumor patient, 30 mg once daily, 4 days on/10 days off, two cycles, week 4, RECIST 1.1
  reduction of short axis diameter versus base line: about 30%
[8]; endometrial tumor patient, 30 mg+GCSF once daily, 4 days on/10 days off, week 24, RECIST 1.0
  decrease of long axis diameter versus base line: approximately 50%

## Cc1csc(-c2nnc(Nc3ccc(Oc4ncccc4-c4ccnc(N)n4)cc3)c3ccccc23)c1 [AMG 900, N-(4-((3-(2-amino-4-pyrimidinyl)-2-pyridinyl)oxy)phenyl)-4-(4-methyl-2-thienyl)-1-phthalazinamine]
p-Histone H3 [9]; 1 h
  IC50: 59 nM
p-Histone H3 [9]
  IC50: 238 nM
p-Histone H3 [10]; 1 h
  IC50: 66 nM
p-Histone H3 [10]; 24 h
  IC50: 4 nM
[8]; same endometrial tumor, 30 mg once daily, week 16, eight cycles, RECIST 1.1
  reduction of short axis diameter: up to 40%

## Cc1csc(-c2nnc(Nc3ccc(Oc4ncccc4-c4ccnc(N)n4)cc3)c3ccccc23)c1 [N-(4-((3-(2-amino-4-pyrimidinyl)-2-pyridinyl)oxy)phenyl)-4-(4-methyl-2-thienyl)-1-phthalazinamine]
[5]
  stability of the crystalline form: unstable
[5]; room temperature, normal humidity
  form conversion at room temperature: converts back to crystalline Form B

## Cc1csc(-c2nnc(Nc3ccc(Oc4ncccc4-c4ccnc(N)n4)cc3)c3ccccc23)c1 [bismesylate dihydrate form A, N-(4-((3-(2-amino-4-pyrimidinyl)-2-pyridinyl)oxy)phenyl)-4-(4-methyl-2-thienyl)-1-phthalazinamine]
[11]
  solubility versus AMG 900 free base crystalline form A: significant improvement in solubility
[5]; room temperature in a capped vial
  form conversion over time: converts to form B

## Cc1csc(-c2nnc(Nc3ccc(Oc4ncccc4-c4ccnc(N)n4)cc3)c3ccccc23)c1 [bismesylate monohydrate form C, N-(4-((3-(2-amino-4-pyrimidinyl)-2-pyridinyl)oxy)phenyl)-4-(4-methyl-2-thienyl)-1-phthalazinamine]
[5]; relative humidity at or greater than 50%
  form conversion with an increase in humidity: convert to the dihydrate form B
